What is called IC50 is the concentration that gives 50% inhibition. A lower IC50 goes with inhibition by little substance.

In this assay the target is T1, UPPSBf (undecaprenyl pyrophosphate synthase) (Bacteroides fragilis, UniProt Q5LI17).
T1 sequence (Q5LI17 1-244): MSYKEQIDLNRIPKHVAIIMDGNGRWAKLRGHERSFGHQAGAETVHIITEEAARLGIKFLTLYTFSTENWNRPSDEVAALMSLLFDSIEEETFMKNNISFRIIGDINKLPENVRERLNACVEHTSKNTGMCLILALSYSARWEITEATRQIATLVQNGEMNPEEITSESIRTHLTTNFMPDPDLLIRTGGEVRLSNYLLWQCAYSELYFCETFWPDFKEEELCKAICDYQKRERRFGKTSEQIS
Briefly: fluorescence plate assay, inhibition of […] 2AA-GPP elongation. In kind it is biochemical.

For `O=P(O)(O)OP(=O)(O)O` [diphosphate], the IC50 came out at 1000 ± 200 µM.

For the origin of these results see publication PMC4341984 (Biochemistry, 2014).
